Assays:
Format in all cases: cell-based, human
[1] = system: PSA mRNA; assay: PSA expression in C4-2B cells (Example 30); details: 48 hrs
Protocol: Cells were plated at 1,000 cells per well. […] ISIS 549148 was included as a negative control. […] After an incubation period of 48 hrs, RNA levels of AR, PSA and TMPRSS2 were measured.
Cells were plated at 2,000 cells per well and cultured in CSS media with 1 nM DHT. […] ISIS 549148 was included as a negative control. […] After an incubation period of 48 hrs, RNA levels of AR, PSA and TMPRSS2 were measured. In the absence of DHT, AR expression in C4-2 cells was 188%, PSA expression was 43% and TMPRSS2 expression was 27% compared to the untreated control.

[2] = system: prostate-specific antigen (PSA) mRNA; assay: Time-course PSA expression in C4-2B cells
Protocol: C4-2B cells were plated at 1,000 cells per well in complete medium. […] ISIS 549148 was included as a negative control. […] After a treatment period of 8 hours, 24 hours, and 48 hours, AR expression was measured with primer probe set hAR-LTS00943. Results are presented in Tables 70-72 as percent expression of AR, relative to non-treated cells.
Expression analysis of prostate-specific antigen (PSA) and TMPRSS2 were also analyzed. Results are presented in Tables 73-75 as percent inhibition of PSA expression and Tables 76-78 as percent inhibition of TMPRSS2 expression, relative to non-treated cells.

[3] = system: VCaP cells; assay: VCaP cell proliferation; details: 5 days; for Proliferation (% untreated control): VCaP cells
Protocol: (§1) After a treatment period of 5 days in complete medium or CSS+1 nM DHT medium, the proliferative capacity of the cancer cells was measured with using CellTiter 96® AQueous One or CellTiter-Glo® Solution Cell Proliferation kit (Promega), following the manufacturer's instructions. […] Treatment with ISIS oligonucleotides in CSS+DHT medium reduced the proliferative capacity to a greater extent than treatment with MVD-3100. The proliferative capacity of cells cultured in CSS medium without DHT is 12% of untreated control levels.

[4] = system: full length AR mRNA; assay: Full-length AR RNA in 22RV1 cells (complete, CSS+DHT medium); details: RNAiMax, 48 hrs
Protocol: Cells were plated at 1,000 cells per well. […] After an incubation period of 48 hrs, RNA levels of full length AR, the V7 variant, PSA and TMPRSS2 were measured.
After an incubation period of 48 hrs, RNA levels of full length AR, the V7 variant, PSA and TMPRSS2 were measured.
Cells were plated at 2,000 cells per well and cultured in CSS media for 16 hours. […] After 4 hrs, 1 nM DHT was added. […] After an incubation period of 48 hrs, RNA levels of AR, AR V7 variant, PSA and TMPRSS2 were measured.

[5] = system: full length AR mRNA; assay: Full-length AR RNA in VCaP cells (complete, CSS+DHT medium); details: RNAiMax, 48 hrs
Protocol: Cells were plated at 10,000 cells per well. […] After an incubation period of 48 hrs, RNA levels of full length AR, the V7 variant, PSA and TMPRSS2 were measured.
After an incubation period of 48 hrs, RNA levels of full length AR, the V7 variant, PSA and TMPRSS2 were measured. The data is presented in Tables 108 expressed as percent expression of gene levels compared to the untreated control.
Cells were plated at 15,000 cells per well and cultured in CSS media for 16 hours. […] After 4 hrs, 1 nM DHT was added. […] After an incubation period of 48 hrs, RNA levels of AR, PSA and TMPRSS2 were measured.

[6] = system: LNCaP cells; assay: LNCaP cell proliferation (complete or CSS+DHT medium); details: 5 days; for Proliferation (% untreated control) in LNCaP cells cultured in CSS + DHT medium: CSS + 1 nM DHT medium
Protocol: as §1, with “One Solution” for “One”, “solution” for “Solution”, “17%” for “12%”

[7] = complete medium or CSS+1 nM DHT

TGATTTAATGGTTGCA [ISIS 569236] (cEt/MOE gapmer chemistry, further chemistry not given here) [targets intron 1]
Percent inhibition of PSA expression ([1]; CSS + DHT medium, 0.04 μM): 0% | Percent inhibition of PSA expression ([1]; CSS + DHT medium, 0.2 μM): 5% | Percent inhibition of PSA expression ([1]; CSS + DHT medium, 1 μM): 33% | Percent inhibition of PSA expression ([1]; CSS + DHT medium, 5.0 μM): 46% | Percent inhibition of PSA expression ([1]; complete medium, 0.04 μM): 30% | Percent inhibition of PSA expression ([1]; complete medium, 0.2 μM): 72% | Percent inhibition of PSA expression ([1]; complete medium, 1 μM): 81% | Percent inhibition of PSA expression ([1]; complete medium, 5.0 μM): 89% | Percent inhibition of PSA expression compared to the control group in 8 hours ([2]; 0.04 μM): 18% | Percent inhibition of PSA expression compared to the control group in 24 hours ([2]; 0.04 μM): 10% | Percent inhibition of PSA expression compared to the control group in 48 hours ([2]; 0.04 μM): 4% | Percent inhibition of PSA expression compared to the control group in 8 hours ([2]; 0.2 μM): 3% | Percent inhibition of PSA expression compared to the control group in 24 hours ([2]; 0.2 μM): 34% | Percent inhibition of PSA expression compared to the control group in 48 hours ([2]; 0.2 μM): 45% | Percent inhibition of PSA expression compared to the control group in 8 hours ([2]; 1 μM): 0% | Percent inhibition of PSA expression compared to the control group in 24 hours ([2]; 1 μM): 44% | Percent inhibition of PSA expression compared to the control group in 48 hours ([2]; 1 μM): 68% | Percent inhibition of PSA expression compared to the control group in 8 hours ([2]; 5.0 μM): 0% | Percent inhibition of PSA expression compared to the control group in 24 hours ([2]; 5.0 μM): 54% | Percent inhibition of PSA expression compared to the control group in 48 hours ([2]; 5.0 μM): 76% | PSA expression ([2]; time course): reduced PSA and TMPRSS2 expression in the cells relative to the control set at the 24 hr and 48 hr time points | Proliferation (% untreated control) ([3]; CSS + DHT medium, 1.34 nM): 83 % untreated control | Proliferation (% untreated control) ([3]; CSS + DHT medium, 4.0 nM): 68 % untreated control | Proliferation (% untreated control) ([3]; CSS + DHT medium, 13.4 nM): 61 % untreated control | Proliferation (% untreated control) ([3]; CSS + DHT medium, 40 nM): 45 % untreated control | Proliferation (% untreated control) ([3]; complete medium, 1.34 nM): 98 % untreated control | Proliferation (% untreated control) ([3]; complete medium, 4.0 nM): 76 % untreated control | Proliferation (% untreated control) ([3]; complete medium, 13.4 nM): 68 % untreated control | Proliferation (% untreated control) ([3]; complete medium, 40 nM): 59 % untreated control | proliferation of VCaP cells [3, 7]: reduced proliferation of the cells in a dose dependent compared to the control | Percent inhibition of full-length AR ([4]; CSS + DHT medium, 1.34 nM): 59% | Percent inhibition of full-length AR ([4]; CSS + DHT medium, 4.0 nM): 89% | Percent inhibition of full-length AR ([4]; CSS + DHT medium, 13.4 nM): 97% | Percent inhibition of full-length AR ([4]; complete medium, 1.34 nM): 17% | Percent inhibition of full-length AR ([4]; complete medium, 4.0 nM): 15% | Percent inhibition of full-length AR ([4]; complete medium, 13.4 nM): 37% | Percent inhibition of full-length AR ([4]; complete medium, 40 nM): 71% | Percent inhibition of full-length AR ([5]; CSS medium, 1.34 nM): 23% | Percent inhibition of full-length AR ([5]; CSS medium, 4.0 nM): 21% | Percent inhibition of full-length AR ([5]; CSS medium, 13.4 nM): 38% | Percent inhibition of full-length AR ([5]; CSS medium, 40 nM): 35% | Percent inhibition of full-length AR ([5]; complete medium, 1.34 nM): 0% | Percent inhibition of full-length AR ([5]; complete medium, 4.0 nM): 41% | Percent inhibition of full-length AR ([5]; complete medium, 13.4 nM): 49% | Percent inhibition of full-length AR ([5]; complete medium, 40 nM): 74% | Proliferation (% untreated control) in LNCaP cells cultured in CSS + DHT medium ([6]; 0.04 μM): 95 % untreated control | Proliferation (% untreated control) in LNCaP cells cultured in CSS + DHT medium ([6]; 0.2 μM): 99 % untreated control | Proliferation (% untreated control) in LNCaP cells cultured in CSS + DHT medium ([6]; 1 μM): 54 % untreated control | Proliferation (% untreated control) in LNCaP cells cultured in CSS + DHT medium ([6]; 5.0 μM): 17 % untreated control | proliferation of LNCaP cells [6, 7]: reduced proliferation of the cells in a dose dependent compared to the control | Proliferation (% untreated control) in LNCaP cells cultured in complete medium ([6]; 0.04 μM): 100 % untreated control | Proliferation (% untreated control) in LNCaP cells cultured in complete medium ([6]; 0.2 μM): 85 % untreated control | Proliferation (% untreated control) in LNCaP cells cultured in complete medium ([6]; 1 μM): 68 % untreated control | Proliferation (% untreated control) in LNCaP cells cultured in complete medium ([6]; 5.0 μM): 54 % untreated control

Source: patent USRE48461E1, “Modulation of androgen receptor expression” (Ionis Pharmaceuticals, Inc., priority 2012, dated 2021)
